Reference: US12612409B2, “Pyrrolopyrimidines as CFTR potentiators” (Cystic Fibrosis Foundation, priority 2016, dated 2026)

Experiments:
[1] = target: T1, CFTR in F508del/F508del primary CF hBE cells (Homo sapiens, UniProt P13569, DEL508-508); assay: Ussing chamber electrophysiology assay of CFTR potentiation in F508del/F508del CF bronchial epithelial cells (27° C.); type: cell-based
T1 construct: Primary cystic fibrosis human bronchial epithelial (CF hBE) cells were expanded and cultured; endogenous in cells; host or cells: primary CF human bronchial epithelial cells, genotype F508del/F508del
T1 sequence (P13569 with tags, fused parts or gaps DEL508-508): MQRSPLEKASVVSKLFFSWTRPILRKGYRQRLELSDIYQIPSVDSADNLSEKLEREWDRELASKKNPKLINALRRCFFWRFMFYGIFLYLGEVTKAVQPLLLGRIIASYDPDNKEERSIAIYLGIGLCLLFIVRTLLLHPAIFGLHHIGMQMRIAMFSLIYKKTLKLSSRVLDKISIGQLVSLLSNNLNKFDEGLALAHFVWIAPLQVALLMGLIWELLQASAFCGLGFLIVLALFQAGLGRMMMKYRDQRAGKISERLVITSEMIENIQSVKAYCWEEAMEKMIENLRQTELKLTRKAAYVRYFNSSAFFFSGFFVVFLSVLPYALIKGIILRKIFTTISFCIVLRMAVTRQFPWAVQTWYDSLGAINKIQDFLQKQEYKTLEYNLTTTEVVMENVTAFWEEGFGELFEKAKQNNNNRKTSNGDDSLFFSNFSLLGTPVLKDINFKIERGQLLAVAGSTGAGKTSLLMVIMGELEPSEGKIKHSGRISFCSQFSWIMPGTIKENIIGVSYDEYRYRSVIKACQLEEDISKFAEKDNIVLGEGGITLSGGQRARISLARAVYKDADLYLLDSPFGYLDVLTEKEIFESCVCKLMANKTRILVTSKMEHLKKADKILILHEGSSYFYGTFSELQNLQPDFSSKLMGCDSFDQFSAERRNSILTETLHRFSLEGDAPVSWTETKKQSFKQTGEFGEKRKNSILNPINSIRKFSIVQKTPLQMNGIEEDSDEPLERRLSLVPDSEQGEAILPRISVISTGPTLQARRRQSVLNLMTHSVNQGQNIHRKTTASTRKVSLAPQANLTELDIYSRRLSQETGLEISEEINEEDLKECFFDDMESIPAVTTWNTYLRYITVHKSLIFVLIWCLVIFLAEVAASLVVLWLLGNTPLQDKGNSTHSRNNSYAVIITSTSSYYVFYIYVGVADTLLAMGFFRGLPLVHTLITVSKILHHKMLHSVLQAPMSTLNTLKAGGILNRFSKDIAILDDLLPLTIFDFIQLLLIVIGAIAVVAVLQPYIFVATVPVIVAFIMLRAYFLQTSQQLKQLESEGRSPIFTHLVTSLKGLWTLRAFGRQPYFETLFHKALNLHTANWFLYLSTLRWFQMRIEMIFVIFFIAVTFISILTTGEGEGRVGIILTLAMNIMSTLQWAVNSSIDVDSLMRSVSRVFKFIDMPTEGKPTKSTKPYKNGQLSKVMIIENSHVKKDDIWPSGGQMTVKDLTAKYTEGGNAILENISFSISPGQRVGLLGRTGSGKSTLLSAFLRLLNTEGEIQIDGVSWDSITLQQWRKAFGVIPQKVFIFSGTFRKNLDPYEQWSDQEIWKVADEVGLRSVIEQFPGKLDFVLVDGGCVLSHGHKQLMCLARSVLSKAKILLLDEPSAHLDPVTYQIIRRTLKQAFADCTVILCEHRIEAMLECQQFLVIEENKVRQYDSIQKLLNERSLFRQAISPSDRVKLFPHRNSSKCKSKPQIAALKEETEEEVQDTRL
Method in brief: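 Well-differentiated primary CF hBE cells (>30 days air/liquid interface) in Ussing chambers, HEPES saline both sides, voltage clamped to zero. Amiloride 30 uM, forskolin 10 uM, four rising compound concentrations, then CFTRinh-172 20 uM added at 20-25 min intervals. Short-circuit current scaled to DMSO (0%) and a positive control potentiator maximum (100%).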

[2] = target: T2, recombinant F508del V470 CFTR in Fischer rat thyroid (FRT) cells (Homo sapiens, UniProt P13569, DEL508-508); assay: FRT ion flux assay of F508del CFTR potentiation; type: cell-based; conditions: FRT cells expressing F508del V470 CFTR, forskolin 20 uM, 27° C. pre-incubation
T2 construct: expressed in transfected cells
T2 sequence (P13569 with tags, fused parts or gaps DEL508-508): as above
Method in brief: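 FRT cells co-expressing F508del V470 CFTR and halide-sensitive YFP, temperature-corrected at 27° C for 16-24 h, then treated 30 min with compound plus 20 uM forskolin. Iodide addition quenches YFP, read after ~21 s; ratio scaled to DMSO (0%) and positive control potentiator (100%).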

| SMILES | EC50 [1] | EC50 [2] |
| --- | --- | --- |
| CC(c1cnn(-c2ccccc2F)c1)n1c(C#N)c(-c2cnc(C(F)(F)F)nc2)c2c(N)ncnc21 (single isomer, unassigned) [Example 6, 4-Amino-7-(1-(1-(2-fluorophenyl)-1H-pyrazol-4-yl)ethyl)-5-(2-(trifluoromethyl)pyrimidin-5-yl)-7H-pyrrolo[2,3-d] pyrimidine-6-carbonitrile] | 1.19 nM | 1.01 nM |
| CCC(c1cn(-c2ccc(F)cc2F)nn1)n1cc(-c2cncnc2OC)c2c(N)ncnc21 (single isomer, unassigned; enantiomer 2) [Example 160, (−) 7-{1-[1-(2,4-Difluorophenyl)-1H-1,2,3-triazol-4-yl]propyl}-5-(4-methoxypyrimidin-5-yl)-7H-pyrrolo[2,3-d]pyrimidin-4-amine, enantiomer 2] | 593 nM | 452 nM |
| N#Cc1c(-c2cnc(C(F)F)nc2)c2c(N)ncnc2n1Cc1cnn(-c2ccccc2F)c1 [Example 30, 4-Amino-5-[2-(difluoromethyl)pyrimidin-5-yl]-7-{[1-(2-fluorophenyl)-1H-pyrazol-4-yl]methyl}-7H-pyrrolo[2,3-d]pyrimidine-6-carbonitrile] | 2.03 nM | 0.59 nM |
| COc1ncc(-c2c(C#N)n(C(C)c3cc(-c4ccccc4F)no3)c3ncnc(N)c23)cn1 (single isomer, unassigned) [Example 15, 4-amino-7-{1-[3-(2-fluorophenyl)-1,2-oxazol-5-yl]ethyl}-5-(2-methoxypyrimidin-5-yl)-7H-pyrrolo[2,3-d]pyrimidine-6-carbonitrile] | 7 nM | 7.22 nM |
| CC(c1cn(-c2ccccc2F)nn1)n1cc(-c2ccc(Cl)cc2)c2c(N)ncnc21 (centres unmarked) [Example 58, 5-(4-Chlorophenyl)-7-{1-[1-(2-fluorophenyl)-1H-1,2,3-triazol-4-yl]ethyl}-7H-pyrrolo[2,3-d]pyrimidin-4-amine] | 28.9 nM | 232 nM |
| CC(c1cn(-c2ccccc2F)nn1)n1cc(-c2ccc(OC3CC3)cc2)c2c(N)ncnc21 (single isomer, unassigned; enantiomer 1) [Example 117, (+) 5-[4-(Cyclopropyloxy)phenyl]-7-{1-[1-(2-fluorophenyl)-1H-1,2,3-triazol-4-yl]ethyl}-7H-pyrrolo[2,3-d]pyrimidin-4-amine, enantiomer 1] | 49.3 nM | 58.8 nM |
| CCC(c1cnn(-c2ccccc2F)c1)n1c(C#N)c(-c2cnc(C(F)(F)F)nc2)c2c(N)ncnc21 (single isomer, unassigned) [Example 4, 4-Amino-7-{1-[1-(2-fluorophenyl)-1H-pyrazol-4-yl]propyl}-5-[2-(trifluoromethyl)pyrimidin-5-yl]-7H-pyrrolo[2,3-d] pyrimidine-6-carbonitrile] | 0.56 nM | 0.61 nM |
| CC(c1cn(-c2ccccc2F)nn1)n1cc(-c2ccc(C#N)c(F)c2)c2c(N)ncnc21 (single isomer, unassigned; enantiomer 2) [Example 116, 4-(4-Amino-7-{1-[1-(2-fluorophenyl)-1H-1,2,3-triazol-4-yl]ethyl}-7H-pyrrolo[2,3-d]pyrimidin-5-yl)-2-fluorobenzonitrile, enantiomer 2] | 26 nM | 36 nM |
| CCC(c1cn(-c2ccc(F)cc2F)nn1)n1cc(-c2cc(F)cnc2OC)c2c(N)ncnc21 (single isomer, unassigned; enantiomer 2) [Example 164, 7-{1-[1-(2,4-Difluorophenyl)-1H-1,2,3-triazol-4-yl]propyl}-5-(5-fluoro-2-methoxypyridin-3-yl)-7H-pyrrolo[2,3-d]pyrimidin-4-amine, enantiomer 2] | 4.58 nM | 8.18 nM |

Second part, the molecule after the results:

| EC50 [1] | EC50 [2] | SMILES |
| --- | --- | --- |
| 12.2 nM | 28.6 nM | COc1nc(C)ccc1-c1cn(Cc2cn(-c3ccccc3F)nn2)c2ncnc(N)c12 [Example 194, 7-{[1-(2-Fluorophenyl)-1H-1,2,3-triazol-4-yl]methyl}-5-(2-methoxy-6-methylpyridin-3-yl)-7H-pyrrolo[2,3-d]pyrimidin-4-amine] |
| 26.1 nM | 22.2 nM | CCC(c1cn(-c2cccc(F)c2F)nn1)n1cc(-c2cncnc2OC)c2c(N)ncnc21 (single isomer, unassigned; enantiomer 2) [Example 306, (+) 7-{1-[1-(2,3-Difluorophenyl)-1H-1,2,3-triazol-4-yl]propyl}-5-(4-methoxypyrimidin-5-yl)-7H-pyrrolo[2,3-d]pyrimidin-4-amine, enantiomer 2] |
| 216 nM | 909 nM | Nc1ncnc2c1c(-c1ccc(Cl)cc1)cn2Cc1nc(-c2ccccc2)c[nH]1 [Example 282, 5-(4-Chlorophenyl)-7-[(4-phenyl-1H-imidazol-2-yl)methyl]-7H-pyrrolo[2,3-d]pyrimidin-4-amine] |
| 23.1 nM | 58.6 nM | CC(c1cn(-c2ccccc2F)nn1)n1cc(-c2ccc(OC3CC3)nc2)c2c(N)ncnc21 (centres unmarked) [Example 213, 5-[6-(Cyclopropyloxy)pyridin-3-yl]-7-{1-[1-(2-fluorophenyl)-1H-1,2,3-triazol-4-yl]ethyl}-7H-pyrrolo[2,3-d]pyrimidin-4-amine] |
| 461 nM | 360 nM | Nc1ncnc2c1c(-c1ncco1)cn2Cc1cn(-c2ccccc2F)nn1 [Example 301, 7-{[1-(2-Fluorophenyl)-1H-1,2,3-triazol-4-yl]methyl}-5-(1,3-oxazol-2-yl)-7H-pyrrolo[2,3-d]pyrimidin-4-amine] |
| 578 nM | 470 nM | COc1ncccc1-c1cn(Cc2ccn(-c3ccccc3F)n2)c2ncnc(N)c12 [Example 268, 7-{[1-(2-Fluorophenyl)-1H-pyrazol-3-yl]methyl}-5-(2-methoxypyridin-3-yl)-7H-pyrrolo[2,3-d]pyrimidin-4-amine] |
| 297 nM | 232 nM | CCC(c1cn(-c2ccccc2F)nn1)n1cc(-c2cncnc2OC)c2c(N)nc(C)nc21 (centres unmarked) [Example 302, 7-{1-[1-(2-Fluorophenyl)-1H-1,2,3-triazol-4-yl]propyl}-5-(4-methoxypyrimidin-5-yl)-2-methyl-7H-pyrrolo[2,3-d]pyrimidin-4-amine] |
| 430 nM | 362 nM | CCC(c1cn(-c2cc(F)ccc2F)nn1)n1cc(-c2cncnc2OC)c2c(N)ncnc21 (single isomer, unassigned; enantiomer 2) [Example 308, (−) 7-{1-[1-(2,5-Difluorophenyl)-1H-1,2,3-triazol-4-yl]propyl}-5-(4-methoxypyrimidin-5-yl)-7H-pyrrolo[2,3-d]pyrimidin-4-amine, enantiomer 2] |
| 26.7 nM | 29.3 nM | CCC(c1cn(-c2ccccc2F)nn1)n1cc(C2CC2)c2c(N)ncnc21 (single isomer, unassigned; enantiomer 1) [Example 173, (−) 5-Cyclopropyl-7-{1-[1-(2-fluorophenyl)-1H-1,2,3-triazol-4-yl]propyl}-7H-pyrrolo[2,3-d]pyrimidin-4-amine, enantiomer 1] |
| 24.5 nM | 538 nM | CC(c1cc(-c2ccccc2F)no1)n1cc(-c2ccc(Cl)cc2)c2c(N)ncnc21 (single isomer, unassigned; enantiomer 1) [Example 181, (+)-5-(4-Chlorophenyl)-7-{1-[3-(2-fluorophenyl)-1,2-oxazol-5-yl]ethyl}-7H-pyrrolo[2,3-d]pyrimidin-4-amine, enantiomer 1] |
